Assays:
HepG2 cells = assay: In vitro cytotoxicity on HepG2 cells; format: cell-based; conditions: 50 μM, 24 h, MTT
[1] = cited from earlier work

SMILES: Nc1c2c(nc3ccccc13)CCCC2 [tacrine, Tacrine]
- inhibitory rate (%) on HepG2 cells (HepG2 cells): 49.91 ± 0.61%
- patients with increased serum alanine aminotransferase levels [1]: about 30%

Reference: PMC8047743 (ACS Omega, 2021)
